Test results taken from patent publication US20090192077A1, “North-2'deoxy -methanocarbathymidines as antiviral agents for treatment of kaposi's sarcoma-associated herpes virus” (priority 2005, published 2009).
One block for each compound: values may come before it.

What was measured:
[1] = system: BCBL-1 cells; assay: Intracellular phosphorylation in KSHV-infected BCBL-1 cells (HPLC of methanolic extracts)
Description: Exponentially growing BCBL-1 cells or CEM-SS cells (a human T cell line) were washed three times with PBS and cultured in serum free AIM-V w/BSA medium (Invitrogen) at 2×10^5 cells/mL in the absence (unstimulated control) or presence of 20 ng/mL PMA. After 24 hours, unstimulated and PMA-stimulated cells were harvested, washed once with PBS and resuspended in serum free AIM-V […] radiolabeled compound [^3H]-(N)-MCT, [^3H]-CDV or [^3H]-GCV. Control cultures containing the same concentration of the test compounds but without the radiolabeled formulations were simultaneously set up in an identical manner to assess the cell counts and to evaluate their anti-KSHV activity. In selected experiments, 5′-ET was added at 10˜50 μM to investigate the changes in the anti-KSHV activity and intracellular phosphorylation profiles of the test compounds. The cells were harvested after 24 or 72 hours of incubation.
Upon harvest, the cells were centrifuged at 1,500 rpm for 10 min and washed once with cold PBS. The cell pellets were resuspended in 250 μL of 60% methanol and heated at 95° C. for 3 min, followed by a microcentrifugation at 12,000 g for 10 min at 4° C. The clarified supernatant fractions were evaporated under nitrogen, redissolved in 250 μL of water and subjected to HPLC separation of the phosphorylated metabolites as described in detail elsewhere (Noy, R. et al. 2002 Mol Cancer Ther 1:585-93; Zalah, L. et al. 2002 Antiviral Res 55:63-75). Fractions containing radiolabeled nucleotides were quantitated based on the known specific activity of the parent tritiated nucleoside (Noy, R. et al. 2002 Mol Cancer Ther 1:585-93; Zalah, L. et al. 2002 Antiviral Res 55:63-75).

[2] = system: KSHV; assay: Anti-KSHV activity in PMA-induced BCBL-1 cells (virion-associated and cytoplasmic KSHV DNA by PCR); type: cell-based, Kaposi's sarcoma-associated herpesvirus; details: for IC50 / IC90: Human gammaherpesvirus 8, BCBL1, 72 h, PMA-stimulated BCBL-1 cells, KSHV virion production, 3 days; for IC50: read-out: IC50 (μM) (mean ± SD), anti-KSHV activity; for IC90: read-out: IC90 (μM) (mean ± SD), anti-KSHV activity
Description: A small fraction (1-3%) of BCBL-1 cells in culture is known to spontaneously undergo lytic cycle and release KSHV virions (Kedes, D. H. et al. 1997 J Clin Invest 99:2082-6; Renne, R. et al. 1996 Nat Med 2:342-6). The antiviral effects of N-MCT and two reference anti-herpetic compounds, CDV and GCV, were determined by the relative reduction in the amounts of cytoplasmic KSHV DNA and newly released KSHV virion-associated DNA in BCBL-1 cells exposed to the test compounds, following lytic induction by phorbol ester, PMA (Renne, R. et al. 1996 Nat Med 2:342-6).
Exponentially growing BCBL-1 cells were washed three times with phosphate-buffered saline (PBS) and resuspended in serum free AIM-V w/BSA medium (Invitrogen, Carlsbad, Calif.) at 2×10^5 cells/mL in the absence (unstimulated control) or presence of 20 ng/mL PMA. After 24 hours, unstimulated and PMA-stimulated BCBL-1 were harvested, washed once with PBS and cultured in serum free AIM-V w/BSA medium at 2×10^5 cells/mL without PMA in the absence or presence of the test compounds at varying concentrations. After 3 days, the cells were counted by the trypan blue dye exclusion method and centrifuged at 1,500 rpm for 5 min. The supernatants were centrifuged at 3,000 rpm for 10 min before subjected to virion-derived KSHV DNA extraction and quantitation, as described below.
Low molecular weight (LMW) DNA was extracted from the pelleted cells according to Hirt's method (Hirt, B. 1967 J Mol Biol 26:365-9) and 0.1 μg of LMW DNA was used for KSHV open reading frame 65 (ORF65) PCR by a primer pair (5′-[…]-3′, SEQ ID NO: 2) and 5′-[…]-3′, SEQ ID NO: 3), generating a 529 bp fragment. The ORF65 PCR reaction mixture, containing 20 mM Tris-HCl (pH 8.4), 50 mM KCl, 2.5 mM MgCl2, 200 μM each dNTP, 0.25 U of Platinum® Taq DNA polymerase (Invitrogen), […] and template DNA, was subjected to 25 cycles of PCR amplification at 94° C. for 60 sec, 60° C. for 60 sec and 72° C. for 60 sec, followed by a final extension at 72° C. for 5 min. In addition, the mitochondrial DNA primer pair (5′-[…]-3′, SEQ ID NO: 4 and 5′-[…]-3′, SEQ ID NO: 5) was used as an internal control for each LMW DNA PCR sample (Yang, Q. et al. 2005 J Virol 79:6122-6133). The amplified products were visualized by electrophoresis on a 1.8% agarose gel.
KSHV virions were pelleted from 300 μL of BCBL-1 culture supernatants by a microcentrifugation at 37,000 g for 2 hours at 4° C. The pelleted virions were resuspended in 150 μL PBS and treated with 20 units of DNase I (Promega, Madison, Wis.) at 37° C. for 30 min to remove cellular DNA from the samples, followed by the incubation with stop solution (20 mM EGTA) at 70° C. for 5 min. Virion-associated KSHV DNA (vDNA) was then extracted by QIAamp DNA extraction kit (QIAGEN, Valencia, Calif.) according to the manufacturer's instructions. One μL of vDNA eluted in 100 μL of elution buffer was subjected to real-time quantitative PCR using a LightCycler® instrument (Roche Applied Science, Indianapolis, Ind.). The 20-μL reaction mixture consisted of the LightCycler FastStart DNA Master SYBR Green I reagents mix (Roche Applied Science), 2.5 mM MgCl2 and 500 nM each of KSHV ORF26 primer pair (5′-[…]-3′, SEQ ID NO: 6 and 5′-[…]-3′, SEQ ID NO: 7). Ten-fold serial dilutions of the plasmid, pKS330Bam (obtained through the AIDS Research and Reference Reagent Program, Division of AIDS, NIAID, NIH, contributed by Drs. Yuan Chang and Patrick Moore), which contained a 330 bp KSHV fragment encoding a portion of the ORF26 gene (Chang, Y. et al. 1994 Science 266:1865-9), were included in each assay as external standards to represent 10 to […] KSHV DNA copies/tube. The number of KSHV vDNA in each supernatant sample was calculated by the LightCycler software version 3.5 (Roche Applied Science), adjusted by the cell count and expressed as copies/10^6 cells.

[3] = system: HSV-2; details: cited from earlier work
[4] = system: HSV-1; details: cited from earlier work
[5] = system: PMA-stimulated BCBL-1 cells; assay: Cytotoxicity by XTT assay in BCBL-1 cells
Description: (§1) The cytotoxicity of the compounds was determined simultaneously in uninduced and PMA-induced BCBL-1 cells in microplates, using the XTT assay (Weislow, O, S. et al. 1989 J Natl Cancer Inst 81:577-86).
PMA-stimulated BCBL-1 cells were cultured with increasing concentrations of N-MCT, CDV or GCV and the cell growth was determined by XTT method (Weislow, O, S. et al. 1989 J Natl Cancer Inst 81:577-86) after 72 hours and shown as % no drug control (mean±SD of triplicate wells).

[6] = system: KSHV; assay: Anti-KSHV activity in the presence of herpesvirus TK inhibitor 5'-ET; type: cell-based, Kaposi's sarcoma-associated herpesvirus; details: PMA-induced BCBL-1; 1 μM N-MCT or 10 μM CDV with 10, 20 or 50 μM 5'-ET
Description: as §1
Exponentially growing BCBL-1 cells or CEM-SS cells (a human T cell line) were washed three times with PBS and cultured in serum free AIM-V w/BSA medium (Invitrogen) at 2×10^5 cells/mL in the absence (unstimulated control) or presence of 20 ng/mL PMA. After 24 hours, unstimulated and PMA-stimulated cells were harvested, washed once with PBS and resuspended in […] radiolabeled compound [^3H]-(N)-MCT, [^3H]-CDV or [^3H]-GCV. Control cultures containing the same concentration of the test compounds but without the radiolabeled formulations were simultaneously set up in an identical manner to assess the cell counts and to evaluate their anti-KSHV activity. In selected experiments, 5′-ET was added at 10˜50 μM to investigate the changes in the anti-KSHV activity and intracellular phosphorylation profiles of the test compounds. The cells were harvested after 24 or 72 hours of incubation.

[7] = biological target: T1, recombinant KSHV DNA polymerase (rPOL) and polymerase processivity factor (rPPF) (Human herpesvirus 8 type P, UniProt Q2HRD0); details: read-out: IC50 (μM) (mean ± SD), KSHV rPOL/rPPF-mediated DNA synthesis; 37° C., 60 min
T1 sequence (Q2HRD0 1-1012): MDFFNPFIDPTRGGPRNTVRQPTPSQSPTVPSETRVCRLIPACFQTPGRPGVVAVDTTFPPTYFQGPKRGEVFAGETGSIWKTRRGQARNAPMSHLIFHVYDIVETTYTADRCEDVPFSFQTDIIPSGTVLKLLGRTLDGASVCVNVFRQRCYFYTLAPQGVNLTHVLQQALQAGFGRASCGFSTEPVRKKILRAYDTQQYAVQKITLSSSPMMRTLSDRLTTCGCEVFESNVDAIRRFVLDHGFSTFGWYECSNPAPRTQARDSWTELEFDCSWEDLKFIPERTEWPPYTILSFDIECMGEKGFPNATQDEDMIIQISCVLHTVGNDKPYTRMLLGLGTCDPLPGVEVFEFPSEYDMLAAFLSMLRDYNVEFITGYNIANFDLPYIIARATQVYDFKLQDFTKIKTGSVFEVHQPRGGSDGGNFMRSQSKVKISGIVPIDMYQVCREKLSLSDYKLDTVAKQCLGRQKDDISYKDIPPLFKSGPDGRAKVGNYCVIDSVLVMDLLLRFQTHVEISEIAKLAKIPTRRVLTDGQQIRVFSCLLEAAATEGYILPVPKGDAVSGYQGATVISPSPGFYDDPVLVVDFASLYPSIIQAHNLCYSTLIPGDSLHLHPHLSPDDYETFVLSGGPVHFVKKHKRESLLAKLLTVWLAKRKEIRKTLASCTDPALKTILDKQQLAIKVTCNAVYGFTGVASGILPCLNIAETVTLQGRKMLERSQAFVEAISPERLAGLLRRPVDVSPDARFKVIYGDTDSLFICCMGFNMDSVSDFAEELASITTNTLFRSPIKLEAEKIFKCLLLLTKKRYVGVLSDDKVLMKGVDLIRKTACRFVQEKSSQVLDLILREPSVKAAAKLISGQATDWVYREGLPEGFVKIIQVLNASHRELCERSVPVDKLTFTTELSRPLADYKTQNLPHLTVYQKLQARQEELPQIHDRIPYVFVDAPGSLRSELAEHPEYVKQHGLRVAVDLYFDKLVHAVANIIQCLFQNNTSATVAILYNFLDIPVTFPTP
T1 sequence (F5HID2 1-396 partner): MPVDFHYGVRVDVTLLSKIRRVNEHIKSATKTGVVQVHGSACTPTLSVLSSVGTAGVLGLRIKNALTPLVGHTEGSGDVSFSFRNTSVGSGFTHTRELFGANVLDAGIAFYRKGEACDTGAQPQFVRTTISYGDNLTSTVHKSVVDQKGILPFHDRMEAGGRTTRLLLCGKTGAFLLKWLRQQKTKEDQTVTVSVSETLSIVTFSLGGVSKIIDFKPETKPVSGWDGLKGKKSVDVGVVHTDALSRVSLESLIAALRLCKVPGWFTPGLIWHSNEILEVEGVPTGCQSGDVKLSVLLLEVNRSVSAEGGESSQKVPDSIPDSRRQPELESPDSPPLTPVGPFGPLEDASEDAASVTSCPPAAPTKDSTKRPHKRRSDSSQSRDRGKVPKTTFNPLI
Description: KSHV rPOL and rPPF were expressed and purified from the recombinant baculovirus-vector infected Sf9 cells (Dorjsuren, D. et al. 2003 Protein Expr Purif 29:42-50). […] The amounts of newly synthesized DNA, which incorporated DIG-dUTP, were determined by the DIG detection kit (Roche Applied Science) according to the manufacturer's instructions.

level of phosphorylated metabolite in the presence of 50 μM 5'-ET [1]: accumulation
Compound: Cc1cn(C2CC(O)C3(COP(=O)(O)O)CC23)c(=O)[nH]c1=O (stereo not shown) [N-MCT-MP]

IC50 [2]: 0.08 ± 0.03 µM
IC90 [2]: 0.68 ± 0.1 µM
Compound: Cc1cn([C@H]2C[C@H](O)[C@]3(CO)C[C@H]23)c(=O)[nH]c1=O [N-MCT, North-methanocarbathymidine]
antiviral activity against HSV-2 [3]: strong antiviral activity
antiviral activity against HSV-1 [4]: strong antiviral activity
50% cytotoxic concentration ([5]; human, 72 h): > 200 µM
effect of adding 5'-ET on anti-KSHV activity [6]: marked increases in the level of cytoplasmic KSHV DNA

Compound: cidofovir diphosphate [CDV-DP]
IC50 [7]: 14.7 ± 2.47 µM

IC50 [2]: 0.96 ± 0.49 µM
IC90 [2]: 7.11 ± 0.28 µM
Compound: Nc1nc(O)c2ncn(COC(CO)CO)c2n1 [GCV, ganciclovir]

Compound: Cc1cn([C@@]23C[C@H](O)[C@@H](CO)[C@@H]2C3)c(=O)[nH]c1=O [S-MCT, south-methanocarbathymidine]
antiviral activity against KSHV ([2]; data not shown): no antiviral activity
antiviral activity against HSV-2 [3]: no antiviral activity
antiviral activity against HSV-1 [4]: no antiviral activity

Compound: ganciclovir triphosphate [GCV-TP]
IC50 [7]: 24.6 ± 5.6 µM

level of phosphorylated metabolite in the presence of 50 μM 5'-ET [1]: substantially decreased
Compound: Cc1cn([C@H]2C[C@H](O)[C@]3(COP(=O)(O)OP(=O)(O)O)C[C@H]23)c(=O)[nH]c1=O [N-MCT-DP]

IC50 [2]: 0.42 ± 0.07 µM
IC90 [2]: 4.01 ± 2.05 µM
Compound: Nc1ccn(C[C@@H](CO)OCP(=O)(O)O)c(=O)n1 [CDV, cidofovir]
cytotoxicity at anti-KSHV concentrations ([5]; 0.03 to 10 μM, PMA-induced BCBL-1 cells): without notable cytotoxicity
effect of adding 5'-ET on anti-KSHV activity [6]: not affected
